± gives the standard deviation.
Legend:
[1] = chemical recovery into PDMS from spiked human plasma; higher = better extraction; conditions: pooled human plasma, extraction method: PES with PDMS
[2] = chemical recovery from spiked human plasma; higher = better extraction; conditions: pooled human plasma
[3] = extraction method: PES+SPE (3 d PDMS equilibration then HLB SPE)
[4] = extraction method: SPE only (HLB 96-well)
[5] = extraction method: SPE only (HLB 96-well), PES comparison experiment
[6] = extraction method: solvent precipitation (ACN + hexane)

Structure (SMILES) | chemical recovery into PDMS ([1]; equilibration time (d): 1) [%] | chemical recovery into PDMS ([1]; equilibration time (d): 3) [%] | chemical recovery [2, 5] [%] | chemical recovery into PDMS ([1]; equilibration time (d): 6) [%] | chemical recovery [2, 3] [%] | chemical recovery [2, 4] [%] | chemical recovery [2, 6] [%]
Nc1ccccc1-c1ccccc1 [2-Aminobiphenyl] | 14.2 ± 6.8 | 14 ± 7.3 | 27.7 ± 4.4 |  | 17.3 ± 3.9 | 22.6 ± 0.6 | 2.86 ± 5
CC(C)c1ccc2sc3ccccc3c(=O)c2c1 [2-Isopropylthioxanthone] | 45.3 ± 4.8 | 48.5 ± 4.6 | 19.8 ± 4.6 | 46.7 ± 2.5 |  | 33.5 ± 9.6 | 
Clc1ccc(C(c2ccc(Cl)cc2)C(Cl)Cl)cc1 [4,4-DDD] | 1.61 ± 0.67 | 1.42 ± 0.086 |  | 1.39 ± 0.11 |  |  | 
O=c1[nH]cc(F)c(=O)[nH]1 [5-Fluorouracil] |  | 0.00395 ± 0.0068 |  |  | 0.502 ± 0.11 | 0.392 ± 0.68 | 
CC(=O)[C@@]1(O)CC[C@H]2[C@@H]3CCC4=CC(=O)CC[C@]4(C)[C@H]3CC[C@@]21C [17alpha-Hydroxyprogesterone] | 7.94 ± 0.8 | 12.2 ± 1.3 | 51.1 ± 7.7 | 13.1 ± 1.1 |  |  | 
c1ccc2cc3c(cc2c1)-c1cccc2cccc-3c12 [Benzo(k)fluoranthene] |  | 92.5 ± 5.6 |  | 93.8 ± 18 |  | 1.23 ± 0.43 | 50.7 ± 1.6
O=S(=O)(c1ccc(Cl)cc1)c1ccc(Cl)cc1 [Bis(4-chlorophenyl)sulfone] | 41.4 ± 2.9 |  |  | 39.6 ± 14 |  | 4.65 ± 1.5 | 
CC(=O)c1cc(C(C)(C)C)cc2c1CCC2(C)C [Celestolide] | 33.2 ± 0.97 | 37.6 ± 3.8 |  | 34.7 ± 3.6 |  | 1.5 ± 0.73 | 76.6 ± 27
O=P1(N(CCCl)CCCl)NCCCO1 (centres undefined) [Cyclophosphamide] | 1.55 ± 2.7 | 2.5 ± 4.3 | 55 ± 4.7 | 6.21 ± 5.4 | 49.6 ± 4.1 | 41 ± 4 | 70.9 ± 3.3
CCCCOP(=O)(O)OCCCC [Di-n-butyl phosphate] | 25.9 ± 1.5 | 31.1 ± 3.2 |  | 30.9 ± 1.4 | 42.2 ± 5 | 33.5 ± 3.3 | 67.8 ± 3.6
CCOP(=S)(OCC)SCSP(=S)(OCC)OCC [Ethion] | 48.1 ± 8.9 | 47.4 ± 4.3 | 31.7 ± 5.8 | 46.7 ± 1.1 |  | 37.2 ± 9.9 | 
COC(=O)N(C(=O)N1CO[C@@]2(C(=O)OC)Cc3cc(Cl)ccc3C2=N1)c1ccc(OC(F)(F)F)cc1 [Indoxacarb] | 52.6 ± 5.8 | 52 ± 9.1 | 38.3 ± 8.6 | 53.2 ± 3.8 |  | 61.3 ± 15 | 
CC(C)Oc1cc(-n2nc(C(C)(C)C)oc2=O)c(Cl)cc1Cl [Oxadiazone] | 39.1 ± 3.5 | 40.4 ± 3.1 | 34.7 ± 5.2 | 37.8 ± 2.7 |  | 43.6 ± 4.8 | 
O=C(O)C(F)(F)C(F)(F)C(F)(F)C(F)(F)C(F)(F)C(F)(F)F [Perfluoroheptanoic acid] | 0.0266 ± 0.023 | 0.00647 ± 0.017 | 39.8 ± 8.7 | 0.0383 ± 0.0028 | 34.1 ± 2.9 | 27.1 ± 4.2 | 85.3 ± 16
CC(=O)c1cc2c(cc1C)C(C)(C)C(C)C2(C)C (centres undefined) [Phantolide] | 32.9 ± 0.97 | 37.4 ± 3.8 |  | 34.1 ± 3.6 |  |  | 

The next lines start with results.

chemical recovery into PDMS ([1]; equilibration time (d): 1) [%] | chemical recovery into PDMS ([1]; equilibration time (d): 3) [%] | chemical recovery [2, 5] [%] | chemical recovery into PDMS ([1]; equilibration time (d): 6) [%] | Structure (SMILES) | chemical recovery [2, 3] [%] | chemical recovery [2, 4] [%] | chemical recovery [2, 6] [%]
24.8 ± 3.2 | 11 ± 4 | 33.5 ± 7.2 | 13.3 ± 4.5 | N#CSCSc1nc2ccccc2s1 [(Benzothiazol-2-ylthio)methyl thiocyanate] |  |  | 
70 ± 4.1 | 79.7 ± 8.8 | 17.7 ± 2.9 | 80.6 ± 8 | c1ccc2cc3ccccc3cc2c1 [Anthracene] |  |  | 
 |  |  | 0.508 ± 1 | CCCCCCCCCCCCCC[N+](C)(C)Cc1ccccc1 [Benzyldimethyltetradecylammonium] |  | 66.8 ± 24 | 
42.4 ± 3 | 44 ± 1.3 | 39.3 ± 5.3 | 45.4 ± 3.2 | CCC(=O)OCC(=O)[C@@]1(OC(=O)CC)[C@@H](C)C[C@H]2[C@@H]3CCC4=CC(=O)C=C[C@]4(C)[C@@]3(F)[C@@H](O)C[C@@]21C [Betamethasone dipropionate] |  |  | 
20.3 ± 6.3 | 23.2 ± 9.8 | 2.88 ± 2 | 17.8 ± 2.9 | CC1C(C)(C)C2=C(C(=O)CCC2)C1(C)C (centres undefined) [Cashmeran] |  |  | 
 |  | 36.1 ± 7.8 | 36.1 ± 0.56 | CC=CC(=O)N(CC)c1ccccc1C [Crotamiton] |  | 37 ± 4.8 | 56.3 ± 3.9
25.7 ± 3.8 | 3.03 ± 5.2 |  | 5.33 ± 4.6 | CCCCCCCCn1sc(Cl)c(Cl)c1=O [DCOIT] |  | 27.3 ± 3.7 | 
75.4 ± 13 | 90.3 ± 7 |  | 87.5 ± 2.9 | O=C1C2CC3C1C1(Cl)C(Cl)C4(Cl)C2C3C1(Cl)C4(Cl)Cl (centres undefined) [Endrinketone] |  |  | 
47.1 ± 4.2 | 50.6 ± 5.3 | 31.5 ± 6 | 48 ± 3.2 | CC(C)OC(=O)C(C)(C)Oc1ccc(C(=O)c2ccc(Cl)cc2)cc1 [Fenofibrate] |  |  | 
52.1 ± 2.8 | 54.3 ± 4.4 |  | 52.2 ± 7.9 | CCOC(=O)NCCOc1ccc(Oc2ccccc2)cc1 [Fenoxycarb] |  |  | 72 ± 7.2
33.8 ± 6.6 | 34.9 ± 2.3 |  | 42.6 ± 7 | CC(=O)C1(C)CC2=C(CCCC2(C)C)CC1C (centres undefined) [ISO E Super] |  | 2.41 ± 2.6 | 
4.8 ± 8.3 |  |  |  | CC1=CC(=O)CC(C)(C)C1 [Isophorone] |  | 0.623 ± 0.28 | 
41.5 ± 4.3 | 46.8 ± 1.9 | 44.5 ± 8.6 | 43.4 ± 1.5 | CC(=O)O[C@]1(C(C)=O)CC[C@H]2[C@@H]3C[C@H](C)C4=CC(=O)CC[C@]4(C)[C@H]3CC[C@@]21C [Medroxyprogesteroneacetate] |  |  | 
 |  |  | 0.002 ± 0.0035 | CN(C)C(=N)NC(=N)N [Metformin] | 1.5 ± 0.32 | 2.12 ± 0.71 | 83.3 ± 12
22.4 ± 3 | 29.4 ± 3.4 | 32.8 ± 7.8 | 32.6 ± 2.6 | C[C@@H]1C[C@H]2[C@@H]3CCC4=CC(=O)C=C[C@]4(C)[C@@]3(Cl)[C@@H](O)C[C@]2(C)[C@@]1(OC(=O)c1ccco1)C(=O)CCl [Mometasone fuorate] |  |  | 
 |  | 39.4 ± 7.1 | 0.000993 ± 0.0017 | CCCCCCCCCCN(C)C [N,N-Dimethyldecylamine] |  |  | 
62.5 ± 6.4 | 65.5 ± 8 |  | 65.4 ± 1.9 | CCCCC(CC)COC(=O)C(C#N)=C(c1ccccc1)c1ccccc1 (centres undefined) [Octocrylene] | 73.7 ± 6 | 2.21 ± 0.76 | 59.8 ± 6.2
